Data published in publication PMC9655245, “Dual Inhibitors of AChE and BACE-1 for Reducing Aβ in Alzheimer’s Disease: From In Silico to In Vivo” (International Journal of Molecular Sciences, 2022).

Experiments:
Type in all cases: biochemical
[1] = molecular target: T1, BACE-1 (β-secretase, beta-site APP cleaving enzyme 1) (Homo sapiens, UniProt P56817); assay: fluorogenic Mca/Dnp peptide cleavage, 5-point dose response
T1 construct: gene BACE1; commercial recombinant enzyme (R&D Systems 931-AS)
T1 sequence (P56817 46-457 limits assumed): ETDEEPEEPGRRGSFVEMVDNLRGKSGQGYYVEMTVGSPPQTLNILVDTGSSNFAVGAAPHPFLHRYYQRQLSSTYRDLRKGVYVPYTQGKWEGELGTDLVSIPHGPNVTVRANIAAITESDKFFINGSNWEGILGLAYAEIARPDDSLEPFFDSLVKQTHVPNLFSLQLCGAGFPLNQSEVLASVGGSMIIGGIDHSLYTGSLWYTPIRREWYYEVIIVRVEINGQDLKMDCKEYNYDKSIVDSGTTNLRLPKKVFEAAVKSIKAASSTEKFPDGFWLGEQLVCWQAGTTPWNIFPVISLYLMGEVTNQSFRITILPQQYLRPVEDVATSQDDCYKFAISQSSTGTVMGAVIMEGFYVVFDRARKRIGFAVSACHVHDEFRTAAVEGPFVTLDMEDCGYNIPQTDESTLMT

[2] = molecular target: T2, AChE (acetylcholinesterase) (Homo sapiens, UniProt P22303); assay: Ellman assay, absorbance at […] nm, 7-point dose response
T2 construct: recombinant, produced in stably expressing CHO-K1 cell line
T2 sequence (P22303 32-614): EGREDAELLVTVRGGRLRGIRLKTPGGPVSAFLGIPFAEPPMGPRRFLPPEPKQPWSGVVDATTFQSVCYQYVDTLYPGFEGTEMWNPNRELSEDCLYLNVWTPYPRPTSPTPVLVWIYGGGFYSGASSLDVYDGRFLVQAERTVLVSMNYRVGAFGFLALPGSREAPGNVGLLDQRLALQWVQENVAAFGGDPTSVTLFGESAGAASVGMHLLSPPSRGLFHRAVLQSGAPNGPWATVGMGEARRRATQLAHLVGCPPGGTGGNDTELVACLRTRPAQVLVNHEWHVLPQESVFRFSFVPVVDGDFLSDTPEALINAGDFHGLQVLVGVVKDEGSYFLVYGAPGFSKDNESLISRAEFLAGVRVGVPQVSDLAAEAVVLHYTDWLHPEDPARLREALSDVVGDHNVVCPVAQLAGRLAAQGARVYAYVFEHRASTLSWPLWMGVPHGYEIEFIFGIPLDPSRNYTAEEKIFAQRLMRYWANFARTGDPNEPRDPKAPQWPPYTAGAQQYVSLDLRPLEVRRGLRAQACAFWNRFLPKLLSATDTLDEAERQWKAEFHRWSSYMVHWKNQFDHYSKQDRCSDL

[3] = molecular target: T2, AChE (acetylcholinesterase); assay: Ellman assay, absorbance at […] nm, single point
[4] = molecular target: T1, BACE-1 (β-secretase, beta-site APP cleaving enzyme 1); assay: fluorogenic Mca/Dnp peptide cleavage, single point
Description: fluorogenic Mca/Dnp peptide cleavage, single point on BACE-1 (β-secretase, beta-site APP cleaving enzyme 1)

| Structure (SMILES) | IC50 [1] [µM] | IC50 [2] [µM] | inhibition at 10 µM [3] [%] | inhibition at 100 µM [4] [%] |
| --- | --- | --- | --- | --- |
| CCn1c(=O)c(N2CCCC(C(=O)NC3CCN(Cc4ccccc4)CC3)C2)nc2ccccc21 (stereo not drawn) [compound 2, F681-0222] | 63 | 4.4 | – | – |
| Cn1c(=O)c(N2CCCC(C(=O)NC3CCN(Cc4ccccc4)CC3)C2)nc2ccccc21 (stereo not drawn) [compound 3, F681-0412] | 55 | 6.7 | – | – |
| CCOc1cccc(C2CC(c3ccc(C)cc3)=NC3(CCN(C(C)=O)CC3)N2)c1O (stereo not drawn) [compound 6, Z274-0419] | 150 | – | -12 | – |
| CCN1CCCC1CNC(=O)CCc1nnc2n(CCc3ccccc3)c(=O)c3ccccc3n12 (stereo not drawn) [compound 4, C741-0335] | – | 9.7 | – | 6 |
| Cc1ccc(Cn2c(=O)c(N3CCC(C(=O)NCCN4CCCCC4C)CC3)nc3ccccc32)cc1 (stereo not drawn) [compound 1, C700-2595] | – | 8.2 | – | 19 |
| COc1cccc(N2CC(C(=O)Nc3ccccc3CN(C)C3CCCCC3)CC2=O)c1 (stereo not drawn) [compound 5, T6769894] | 60 | – | 19 | – |
